Earlier results on one molecule are cited in US20240252447A1 (Ovid Therapeutics Inc., priority 2019, published 2024).

Some results are limits rather than exact numbers.

In data set [1] the test system is sleep onset and sleep maintenance. To be noted: three-month efficacy study, insomnia.
For data set [2] the following is noted: patients with a history of drug abuse.

In the case of `Oc1noc2c1CCNC2` [Gaboxadol, 4,5,6,7-tetrahydroisoxazolo [5,4-c]pyridine-3-ol], the “effects in sleep onset and sleep maintenance” value in data set [1] is “failed to show significant effects in sleep onset and sleep maintenance”. For the same molecule, the “time to peak concentration” value (conventional pharmaceutical formulations such as tablets and capsules) was at most 30 min. The “half-life (t1/2)” value (plasma half-life) was 1.5 to 2 h. Moreover, in data set [2], the psychiatric adverse events result is “steep increase in psychiatric adverse events”.
